# According to PubChem BioAssay (NCI):
#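 Cultured in 96-well plates, cells were exposed to test compound for 48 hours across five concentrations. The concentration for 50% growth inhibition is given as GI50. TGI marks complete inhibition of growth.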
# Legend:
# Assay in all cases: growth of human tumour cells (NCI), 48 h
# UACC-257 melanoma = system: UACC-257 melanoma
# RPMI-8226 leukemia = system: RPMI-8226 leukemia
# IGROV1 ovarian = system: IGROV1 ovarian
# 786-0 renal = system: 786-0 renal
# HCT-15 colon = system: HCT-15 colon
# KM12 colon = system: KM12 colon
# MDA-MB-435 = system: MDA-MB-435
# NCI-H522 lung = system: NCI-H522 lung
# SF-539 CNS = system: SF-539 CNS
# ACHN renal = system: ACHN renal
# NCI-H460 lung = system: NCI-H460 lung
# MALME-3M melanoma = system: MALME-3M melanoma
# PC-3 prostate = system: PC-3 prostate
# UACC-62 melanoma = system: UACC-62 melanoma
# A498 renal = system: A498 renal
# A549 NSCLC = system: A549 NSCLC
# NCI-H23 lung = system: NCI-H23 lung
# NCI-H226 lung = system: NCI-H226 lung
# SF-268 CNS = system: SF-268 CNS
# DU-145 prostate = system: DU-145 prostate
# HOP-62 NSCLC = system: HOP-62 NSCLC
# SN12C renal = system: SN12C renal
# SK-OV-3 ovarian = system: SK-OV-3 ovarian
# NCI/ADR-RES ovarian = system: NCI/ADR-RES ovarian
# MCF7 breast = system: MCF7 breast
# BT-549 breast = system: BT-549 breast
# OVCAR-5 ovarian = system: OVCAR-5 ovarian
# K-562 leukemia = system: K-562 leukemia
# SR leukemia = system: SR leukemia
# SNB-19 CNS = system: SNB-19 CNS
# HCC-2998 colon = system: HCC-2998 colon
# OVCAR-3 ovarian = system: OVCAR-3 ovarian
# CAKI-1 renal = system: CAKI-1 renal
# MDA-MB-231 breast = system: MDA-MB-231 breast
# HS 578T breast = system: HS 578T breast
# SK-MEL-5 melanoma = system: SK-MEL-5 melanoma
# TK-10 renal = system: TK-10 renal
# RXF 393 renal = system: RXF 393 renal
# COLO 205 colon = system: COLO 205 colon
# HT29 colon = system: HT29 colon
# HOP-92 NSCLC = system: HOP-92 NSCLC
# HCT-116 colon = system: HCT-116 colon
# U251 CNS = system: U251 CNS
# UO-31 renal = system: UO-31 renal
# OVCAR-8 ovarian = system: OVCAR-8 ovarian
# SF-295 CNS = system: SF-295 CNS
# SW-620 colon = system: SW-620 colon
# CCRF-CEM leukemia = system: CCRF-CEM leukemia
# MOLT-4 leukemia = system: MOLT-4 leukemia
# M14 melanoma = system: M14 melanoma
# OVCAR-4 ovarian = system: OVCAR-4 ovarian
# HL-60(TB) leukemia = system: HL-60(TB) leukemia
# LOX IMVI melanoma = system: LOX IMVI melanoma
structure (smiles),measurement,setting,value
N#CC1=C(N)Oc2c(ccc3ccccc23)C1c1cccs1 (stereo unspecified),GI50,UACC-257 melanoma,51.4 nM
same,TGI,UACC-257 melanoma,22200 nM
same,GI50,RPMI-8226 leukemia,32.9 nM
same,TGI,RPMI-8226 leukemia,3600 nM
same,GI50,IGROV1 ovarian,82.5 nM
same,TGI,IGROV1 ovarian,15800 nM
same,GI50,786-0 renal,57.7 nM
same,TGI,786-0 renal,11500 nM
same,GI50,HCT-15 colon,44.2 nM
same,TGI,HCT-15 colon,10900 nM
same,GI50,KM12 colon,43.4 nM
same,TGI,KM12 colon,3450 nM
same,GI50,MDA-MB-435,16.8 nM
same,TGI,MDA-MB-435,42 nM
same,GI50,NCI-H522 lung,18.5 nM
same,TGI,NCI-H522 lung,84.6 nM
same,GI50,SF-539 CNS,26 nM
same,TGI,SF-539 CNS,69.6 nM
same,GI50,ACHN renal,84 nM
same,TGI,ACHN renal,14800 nM
same,GI50,NCI-H460 lung,36 nM
same,TGI,NCI-H460 lung,662 nM
same,GI50,MALME-3M melanoma,38 nM
same,TGI,MALME-3M melanoma,24300 nM
same,GI50,PC-3 prostate,41 nM
same,TGI,PC-3 prostate,15000 nM
same,GI50,UACC-62 melanoma,64.7 nM
same,TGI,UACC-62 melanoma,15200 nM
same,GI50,A498 renal,23.2 nM
same,TGI,A498 renal,84.3 nM
same,GI50,A549 NSCLC,61.5 nM
same,TGI,A549 NSCLC,14000 nM
same,GI50,NCI-H23 lung,62.8 nM
same,TGI,NCI-H23 lung,12700 nM
same,GI50,NCI-H226 lung,1060 nM
same,TGI,NCI-H226 lung,19000 nM
same,GI50,SF-268 CNS,80.7 nM
same,TGI,SF-268 CNS,10100 nM
same,GI50,DU-145 prostate,46.3 nM
same,TGI,DU-145 prostate,1030 nM
same,GI50,HOP-62 NSCLC,58.3 nM
same,TGI,HOP-62 NSCLC,18500 nM
same,GI50,SN12C renal,81.6 nM
same,TGI,SN12C renal,12900 nM
same,GI50,SK-OV-3 ovarian,56.5 nM
same,TGI,SK-OV-3 ovarian,14700 nM
same,GI50,NCI/ADR-RES ovarian,36.8 nM
same,TGI,NCI/ADR-RES ovarian,6070 nM
same,GI50,MCF7 breast,35.4 nM
same,TGI,MCF7 breast,13900 nM
same,GI50,BT-549 breast,68.8 nM
same,TGI,BT-549 breast,3090 nM
same,GI50,OVCAR-5 ovarian,129 nM
same,TGI,OVCAR-5 ovarian,16500 nM
same,GI50,K-562 leukemia,32.1 nM
same,TGI,K-562 leukemia,12000 nM
same,GI50,SR leukemia,33.7 nM
same,TGI,SR leukemia,7810 nM
same,GI50,SNB-19 CNS,321 nM
same,TGI,SNB-19 CNS,20700 nM
same,GI50,HCC-2998 colon,132 nM
same,TGI,HCC-2998 colon,3890 nM
same,GI50,OVCAR-3 ovarian,26.9 nM
same,TGI,OVCAR-3 ovarian,70.4 nM
same,GI50,CAKI-1 renal,46.5 nM
same,TGI,CAKI-1 renal,16100 nM
same,GI50,MDA-MB-231 breast,140 nM
same,TGI,MDA-MB-231 breast,2720 nM
same,GI50,HS 578T breast,30.2 nM
same,TGI,HS 578T breast,14100 nM
same,GI50,SK-MEL-5 melanoma,42.7 nM
same,TGI,SK-MEL-5 melanoma,5200 nM
same,GI50,TK-10 renal,66.9 nM
same,TGI,TK-10 renal,20200 nM
same,GI50,RXF 393 renal,31.3 nM
same,TGI,RXF 393 renal,21800 nM
same,GI50,COLO 205 colon,71.6 nM
same,TGI,COLO 205 colon,591 nM
same,GI50,HT29 colon,53.6 nM
same,TGI,HT29 colon,1120 nM
same,GI50,HOP-92 NSCLC,57.3 nM
same,TGI,HOP-92 NSCLC,14100 nM
same,GI50,HCT-116 colon,50.2 nM
same,TGI,HCT-116 colon,1830 nM
same,GI50,U251 CNS,40.7 nM
same,TGI,U251 CNS,11300 nM
same,GI50,UO-31 renal,69.6 nM
same,TGI,UO-31 renal,17500 nM
same,GI50,OVCAR-8 ovarian,55 nM
same,TGI,OVCAR-8 ovarian,12100 nM
same,GI50,SF-295 CNS,51.1 nM
same,TGI,SF-295 CNS,17000 nM
same,GI50,SW-620 colon,36.6 nM
same,TGI,SW-620 colon,15200 nM
same,GI50,CCRF-CEM leukemia,33.7 nM
same,TGI,CCRF-CEM leukemia,11400 nM
same,GI50,MOLT-4 leukemia,59.4 nM
same,TGI,MOLT-4 leukemia,14600 nM
same,GI50,M14 melanoma,40.5 nM
same,TGI,M14 melanoma,11900 nM
same,GI50,OVCAR-4 ovarian,430 nM
same,TGI,OVCAR-4 ovarian,18700 nM
same,GI50,HL-60(TB) leukemia,28.3 nM
same,TGI,HL-60(TB) leukemia,79.3 nM
same,GI50,LOX IMVI melanoma,79.8 nM
same,TGI,LOX IMVI melanoma,14000 nM
